Source: patent publication US6426343B1, “Preparation and use of a specific GABA-Aα5 receptor ligand for treatment of Alzheimer's disease” (Merck Sharp & Dohme Ltd., priority 1995, dated 2002)

Tested on: Male PVG hooded rats
Assay: Morris watermaze cognitive studies
Format: in vivo, rat
Procedure: FG 8094 was synthesised by the Merck, Sharp and Dohme Neuroscience Research Centre's medicinal chemistry group and was suspended in 0.5% CMC. Vehicle or FG 8094 was administered IP 30 mins before the beginning of the first training trial.
Male PVG hooded rats (Bantin & Kingman, Hull U.K.), weighting approximately 300 g, were housed in groups of four with free access to food and water. The animals were maintained on a 12/12 h light-dark cycle, with the lights on at 07:00 h.
The Morris watermaze consists of a white, fibre-glass circular pool, of diameter 2 m, filled with an opaque mixture of water and white dye (E308, Morton International) maintained at 26-28° C. […] A hidden platform (13×13 cm) submerged 2 cm below the water surface was placed in the middle of the NE quadrant.
A closed-circuit video camera, fitted with a wide-angle lens, was mounted directly above the centre of the pool and connected to an image analyser which digitised the image. The digital information was relay to an Archimedes microcomputer running ‘Watermaze’ a software package supplied by Paul Fray LTD (Cambridge, UK). The software package provided the following measures: latency to reach the platform, length of path taken, average swimming speed, the time spent and the total distance travelled in the target quadrant.
The rats were assigned to four treatment groups (n=8): Vehicle, 0. 1, 0.3, 1.0 mg/kg FG 8094. During the acquisition phase of the experiment all the groups were given four trials per day. During this time the hidden platform was submerged in the NE quadrant of the watermaze. The rat was taken from the home cage and placed into the watermaze at one of four quasi-randomly determined locations (‘North’, ‘East’, ‘South’, or ‘West’) with its head facing, and almost touching, the pool wall. Trials began when the rat was released by the experimenter and ended when the rat climbed onto the platform and the mean escape latency was recorded. The maximum trial length was 60 s. If by that time the rat had not climbed on to the platform the trial ended automatically, the experimenter placed the rat on the platform and an escape latency of 60 s was recorded. The rat remained on the platform for 30 s and was then removed to a high-sided opaque plastic container for a further 30 s, (inter-trial interval, ITI). At the end of the ITI the rat was placed into the pool again, but at a different location and upon release the next trial began. This procedure was repeated until four trials had been completed.
Normally, the escape latency declines over several days of training from 60 s to around 20 s. A ‘probe trial’ assess the rat's spatial memory for the location of the hidden platform. During this trial the platform was removed from the watermaze and the rat was allowed to search the pool for 60 s before it was removed from the pool. If the treatment improves the rat's memory for the location of the platform, it will spend longer searching the quadrant in which the platform had previously been hidden (NE) than a rat given vehicle treatment.
Deficits in performance that might be due to drug-induced side-effects (such as blurred vision or motoric deficits resulting in an impaired ability to swim) were assessed using cued recall. In this procedure, the platform was also placed in the NE quadrant, but was raised 3 cm above the water level and thus visible to the rat. If the treatment has no effects on the mean escape latencies to the visible platform, then any group differences in mean escape latencies to an invisible platform can be attributed to an effect on cognitive process.
Six days following the probe trial, during which time the rats were not expose to the watermaze or administered FG 8094, the rats were again tested with the platform submerged in the NE quadrant using the acquisition protocol.
Reversal training was identical to the acquisition phase of the experiment with the exception that the platform was submerged in the middle of the SW quadrant.

SMILES: CCOC(=O)c1ncn2c1[C@@H]1CCCN1C(=O)c1cc(OC)ccc1-2 [FG 8094, 9H-imidazo[1,5-a]pyrrolo[2,1-C][1,4]benzodiazepine-1-carboxylic acid, 11, 12, 13, 13a-tetrahydro-7-methoxy-9-oxo-, ethyl ester, (S)-(9CI)]
- cued recall, mean escape latency to the visible platform (0.1, 0.3, 1.0 mg/kg IP): no significant effect of dose
- probe trial, time spent searching the platform quadrant (0.1, 0.3, 1.0 mg/kg IP): no difference in the amount of time the control and drug groups spent searching the quadrant
- cued recall, mean path length (0.1, 0.3, 1.0 mg/kg IP, post hoc Newman-Keuls): vehicle group traversed a significantly longer path than all the groups given FG 8094
- mean escape latencies, acquisition trials (0.3 and 1.0 mg/kg IP, nine day training): appear to be shorter than the vehicle control group or the 0.1 mg/kg group, the observation was not confirmed by Newman Keul post hoc tests
- mean swimming speed during escape to the hidden platform (acquisition trials, 0.1, 0.3, 1.0 mg/kg IP): no significant effect of dose
- reversal learning, mean escape latency (platform moved to Southwest quadrant, first reversal day, p<0.05): mean escape latency of the vehicle group was significantly longer than all of the FG 8094 groups
- recall test, mean escape latency (six days after probe trial, 0.1, 0.3, 1.0 mg/kg, p<0.05): mean escape latency of the vehicle group was longer than any of the FG 8094 groups
